Patent publication US9284368B2, “Substituted pyrazines as cadherin-11 inhibitors” (Georgetown University, priority 2009, dated 2016)
“Also recorded” adds a separate entry of the source.

Columns and labels:
nude mice = assay: Pilot toxicity study in nude mice; type: in vivo
[1] = system: MDA-MB-231 breast cancer cells; assay: Soft agar colony growth assay; type: cell-based; details: MDA-MB-231 cells, 100 nM
Procedure: To further characterize proliferative ability of cancer cells lacking cadherin-11, anchorage independent growth was studied in the stable cell lines. 6-well tissue culture dishes were coated with 1.2 mL 0.6% Bacto-agar (Difco; Franklin Lakes, N.J.) in DMEM supplemented with 5% fetal bovine serum. Once set, the cells were plated in triplicate in 0.3% agar (15,000/1 mL in each well) and layered gently on top of the coated agar. The plates were incubated for 10 days to 2 weeks prior to reading using a colony counter (Omnicon; Manassas, Va.) and visualized using a SMZ-1500 stereoscope (Nikon; Tokyo, JP).
(§1) For luminescence, the cells were plated in triplicate in 24-well white-walled tissue culture dishes (Wallac; Waltham, Mass.) as described above. On the final day, cells were resuspended in an equal volume of Cell-Titer-Glo Luminescence Reagent (Promega; Madison, Wis.), which measures ATP, and incubated for 20 min at room temperature. The assay was measured using luminescence.
Cells (5,000) were plated in 0.3% agar layered on top of 0.6% agar in 35-mm^2 plates. After 2 weeks, the colonies were counted in an Omnicon 3600 automated colony counter (BioLogics, Inc.; Manassas, Va.) and visualized using a SMZ-1500 stereoscope (Nikon; Tokyo, JP). Confirmation assays were completed in 24-well dishes and analyzed using Cell-Titer-Glo Reagent (see proliferation assays).

cadherin-11 = molecular target: T1, cadherin-11 (Homo sapiens, UniProt P55287); assay: Initial functional screening of in silico hits for block of cadherin-11 function; type: cell-based; details: in vitro screening of commercially purchased in silico hits
T1 construct: Endogenous cadherin-11 expression in MDA-MB-231 breast and PC-3 prostate cancer cells was knocked down; endogenous in cells; host or cells: MDA-MB-231 breast cancer cells (PC-3 partly)
T1 sequence (P55287 54-796): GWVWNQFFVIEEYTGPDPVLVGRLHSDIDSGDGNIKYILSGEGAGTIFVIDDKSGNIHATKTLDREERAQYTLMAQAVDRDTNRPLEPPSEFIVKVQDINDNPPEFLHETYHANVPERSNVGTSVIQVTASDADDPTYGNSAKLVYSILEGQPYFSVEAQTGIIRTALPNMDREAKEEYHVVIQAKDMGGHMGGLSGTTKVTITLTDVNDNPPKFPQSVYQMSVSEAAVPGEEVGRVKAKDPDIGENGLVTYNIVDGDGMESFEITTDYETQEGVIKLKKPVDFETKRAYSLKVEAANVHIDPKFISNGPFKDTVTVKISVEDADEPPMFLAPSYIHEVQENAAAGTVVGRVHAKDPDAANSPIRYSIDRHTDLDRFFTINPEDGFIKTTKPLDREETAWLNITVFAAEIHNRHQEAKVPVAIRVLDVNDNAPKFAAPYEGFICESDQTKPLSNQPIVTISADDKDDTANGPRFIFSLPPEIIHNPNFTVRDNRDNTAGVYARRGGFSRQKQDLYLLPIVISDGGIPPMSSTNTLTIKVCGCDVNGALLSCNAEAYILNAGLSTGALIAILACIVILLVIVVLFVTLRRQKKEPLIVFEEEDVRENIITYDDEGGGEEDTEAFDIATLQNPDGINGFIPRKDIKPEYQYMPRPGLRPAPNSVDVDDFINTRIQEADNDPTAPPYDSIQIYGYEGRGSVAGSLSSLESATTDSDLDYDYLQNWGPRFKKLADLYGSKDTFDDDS
Procedure: These two pharmacophores were further refined and screened again to maximize solubility and then retested using various in vitro assays. […] Finally, it was also observed that the compound was not cytotoxic up to a 100 μM dosage in vitro, as well as a pilot study in nude mice.
Cadherin-11 association with certain poor prognosis cancers, proliferation of basal-type breast cancer cells, and tumorigenesis in mice make it a viable therapeutic target for these malignancies. […] A computer-based method of structural modeling was used to predict conformations capable of binding these specific hydrophobic pockets. The ectodomain1 (EC1) dimer adhesive interface is formed by exchange of N-terminal β strands between two cadherin-11 molecules. The dimer interface has a large hydrophobic region (unique to type II cadherins) with two conserved tryptophan residues. […] This structure was used to base molecular simulations and produce pharmacophores designed to block one or both of the two adjacent regions (P1 and P2) predicted necessary for cadherin-11 function in cell-cell adhesion. Three in-silico strategies were implemented: 1) generation of flexible receptor conformations, 2) receptor-based dynamic pharmacophore screening and 3) small molecule docking simulations. The 29 most promising candidates identified by in silico screen were subjected to free energy simulations at 100 picosecond intervals, taking into consideration the induced fit effect, which accounts for conformation flexibility both before and after binding/docking simulations. […] These 29 compounds were purchased commercially and tested. Many of the compounds initially screened inhibited cadherin-11 function at 10 μM range, attesting to the in silico screening efficiency. […] The potency of Compound 1 likely stems from its shape and moderate structural flexibility, enabling it to accommodate to and bind tightly within the tryptophan binding pocket. Though this pocket is largely hydrophobic, a network of hydrogen bonds between Compound 1 and R23, H25, P88, S90 confers specificity and rigid binding. […]

[2] = In vivo acute toxicity (OECD Up-and-Down Procedure); details: mouse, female Balb/c mice, IP injection, observed for 14 days
Procedure: Female Balb/c mice, 8-12 weeks old, were obtained from the National Cancer Institute (Bethesda, Md.). A stock solution of 200 mg/ml of Compound 1 was prepared with a 1:1 ratio of DMSO and PEG. The working solution was diluted with PEG. Compound 1 (Sd-133) was administered at a constant volume (0.01 ml/1 g body weight) over the range of doses to be tested by varying the concentration of the dosing preparation according to the OECD Acute Toxicity-Up-and Down Procedure. […] Observations included toxicity onset time, symptoms, duration and the time elapsed for recovery or death. Based on the study, the LD50 of Compound 1 was estimated at 2000 mg/kg.

[3] = system: MDA-MB-231 breast cancer cells; assay: Matrigel outgrowth (invasion) assay; type: cell-based; details: MDA-MB-231 cells, 100 nM
Procedure: (§2) Upon finding significant differences in growth and migration in cancer cells with reduced cadherin-11 expression, invasive capability of the stable cell lines was explored in a 3-dimensional matrix. The cells were plated in duplicate in a 12-well glass-bottom dish (MatTek; Ashland, Mass.) coated with 150 μL of Matrigel (BD Biosciences; San Jose, Calif.). The cells (5,000 cells/100 μl medium) were gently plated on top of the Matrigel layer directly and incubated 30 min at 37° C. Growth medium (1 mL) was gently added to each well, and growth was visualized using a 5× objective on an AH2 Vanox inverted microscope (Olympus; Tokyo, JP) equipped with a CCD camera.
(§3) Cells (5,000 cells/100 μl medium) were plated atop 150 μL layer of Matrigel (BD Biosciences; San Jose, Calif.) in duplicate in 12-well glass-bottom dishes (MatTek; Ashland, Mass.) and incubated for 30 minutes at 37° C. Growth medium (1 mL) was gently added to each well. Growth was visualized using a 5× objective on AH2 Vanox inverted microscope (Olympus; Tokyo, JP).

MCF7 breast cancer cells [4] = assay: Matrigel outgrowth (invasion) assay; type: cell-based; details: MCF7 breast cancer cells (expressing E and P-cadherin), 1 μM and 10 μM
Procedure: as §2, §3

[5] = system: MDA-MB-435 melanoma cells; assay: Matrigel outgrowth (invasion) assay; type: cell-based; details: MDA-MB-435 melanoma cells (expressing N-cadherin), 1 μM and 10 μM
Procedure: as §2, §3

[6] = system: PC-3 prostate cancer cells; assay: Growth phenotypes in PC-3 cells; type: cell-based
MCF7 breast cancer cells [7] = assay: Proliferation assay; type: cell-based; details: MCF7 breast cancer cells (expressing E and P-cadherin), 1 μM and 10 μM
Procedure: (§4) For crystal violet assays, cells were plated in triplicate in 96-well tissue culture dishes at 4 separate densities. Cells were grown in DMEM supplemented with 5% fetal bovine serum for a period of 5 days. Dishes representing growth were stained with crystal violet on Days 1, 3 and 5 after plating, by removing growth medium, staining with 50 μL of crystal violet stain for 10 min, then gently washing in dH2O and allowing to dry overnight. Stained cells were solubilized in 100 μL 50/50 (v/v) 0.1M sodium citrate and ethanol for 15 min, and absorbance was read at 630λ.
as §1, with “and grown in DMEM supplemented with 5% fetal bovine serum for 5 days.” for “as described above.”, “fifth” for “final”, “day, the” for “day,”
(§5) Cells were plated in triplicate at four separate densities and grown in DMEM with 5% FBS for five days. Cells were stained with crystal violet on days 1, 3, and 5 after plating, as described in Example 5. Absorbance was read at 630λ using a BioRad Ultramark Microplate Imaging System with Microplate Manager 5.1 software. […]

[8] = system: MDA-MB-435 melanoma cells; assay: Proliferation assay; type: cell-based; details: MDA-MB-435 melanoma cells (expressing N-cadherin), 1 μM and 10 μM
Procedure: as §4
as §1, with “and grown in DMEM supplemented with 5% fetal bovine serum for 5 days.” for “as described above.”, “fifth” for “final”, “day, the” for “day,”
as §5

[9] = system: MDA-MB-231 breast cancer cells; assay: Proliferation assay (crystal violet / luminescence); type: cell-based; details: MDA-MB-231 cells, 100 nM
Procedure: as §4
as §1, with “and grown in DMEM supplemented with 5% fetal bovine serum for 5 days.” for “as described above.”, “fifth” for “final”, “day, the” for “day,”
as §5

Cytotoxicity in vitro = type: cell-based; details: up to a 100 μM dosage in vitro
[10] = system: L-cells with stably-transfected cadherin-11; assay: Cell aggregation assay, cadherin-11 transfected L-cells; type: cell-based; details: cadherin-11 L-cells, shaken one hour at 100 rpm
Procedure: (§6) Cell aggregation assays were performed on L-cells with stably-transfected empty vector or cadherin-11. The cells were seeded and grown overnight, trypsinized with additional EDTA, resuspended in DMEM with 20% FBS, and counted. The cells were spun down and resuspended in DMEM containing no treatment, 0.5 mM EDTA, 0.25 mM EDTA, 0.1 mM EDTA, or cadherin-11 inhibitors including 1 TM of Compound 1 (Sd-133), 1 TM of Compound 2 (Sd-133A), 1 TM of Compound 3 (Sd-133B), 1 TM of Compound 11 (Sd-12), 1 TM of Compound 12 (Sd-48), 1 TM of Compound 17 (Sd-20), 1 TM of Compound 18 (Sd-51), 1 TM of Compound 19 (Sd-22), or 1 TM of Compound 20 (Sd-23). The cells were allowed to recover for one hour and were then put into uncoated 12 well plates and shaken for one hour at 100 rpm at 2.25×10^5 cells/mL. The cells were then counted using Microsizer Coulter Counter (Beckman Coulter, Inc; Brea, Calif.). Counts over 20 uM in length were considered aggregates, while counts below 20 uM were considered as single cells. The counts were confirmed by manual counting.

[11] = system: L-cells with stably-transfected empty vector; assay: Cell aggregation assay, empty vector L-cells; type: cell-based; details: shaken one hour at 100 rpm
Procedure: as §6

Question: For `Oc1ccc(-c2cccnc2-c2ccccc2)cc1` [Compound 1], which cytotoxicity (nude mice) is on record?
Answer: The cytotoxicity was “not cytotoxic”.

Question: What about the colony growth [1] of the same compound?
Answer: The colony growth was “significantly blocked; also recorded: significantly inhibited”.

Question: What about the “concentration range at which cadherin-11 is functionally blocked (effective range)” value (from here on “concentration range”) (cadherin-11) of the same compound?
Answer: Its value is “nanomolar ranges”.

Question: What about the LD50 at 14 days [2] of the same compound?
Answer: The LD50 at 14 days was 2000 mg/kg.

Question: What about the invasion [3] of the same compound?
Answer: Its invasion is “significantly blocked; also recorded: significantly inhibited”.

Question: And the invasion (MCF7 breast cancer cells [4])?
Answer: The invasion was “fails to block; also recorded: failed to alter”.

Question: And the invasion [5]?
Answer: Its invasion is “fails to block; also recorded: failed to alter”.

Question: And the growth phenotypes [6]?
Answer: Its growth phenotypes is “partially inhibited”.

Question: And the proliferation (MCF7 breast cancer cells [7])?
Answer: Its proliferation is “fails to block; also recorded: failed to alter”.

Question: What about the proliferation [8] of the same compound?
Answer: The proliferation was “fails to block; also recorded: failed to alter”.

Question: And the cell proliferation [9]?
Answer: Its cell proliferation is “significantly blocked; also recorded: significantly inhibited”.

Question: And the cytotoxicity (Cytotoxicity in vitro)?
Answer: Its cytotoxicity is “not cytotoxic”.

Question: Which aggregate formation [10] does the source give for `Oc1ccc(-c2nc3ccccc3nc2-c2cccc(Cl)c2)cc1` [Compound 2] here?
Answer: The aggregate formation was “decrease”.

Question: And the aggregate formation [11]?
Answer: Its aggregate formation is “remained stable”.

Question: Which aggregate formation [10] does the source give for `Oc1ccc(-c2nc3ccccc3nc2-c2ccccc2)cc1` [Compound 3] here?
Answer: Its aggregate formation is “decrease”.

Question: What about the aggregate formation [11] of the same compound?
Answer: The aggregate formation was “remained stable”.

Question: For `O=C1c2ccccc2C(=O)c2c1oc1ccc3ccccc3c21` [Compound 9], which “concentration range” value (cadherin-11) is on record?
Answer: Its value is “nanomolar ranges”.

Question: With `Oc1ccc2c(c1)c1ccccc1c1ncccc21` [Compound 10] as the compound, how does the “concentration range” value (cadherin-11) read?
Answer: Its value is “nanomolar ranges”.
